Source: patent US6737383B1, “Herbicidal oxadiazolidines” (priority 1999, dated 2004)

Key:
pigweed = test: Test B pre/postemergence pigweed; assay type: in vivo, Amaranthus retroflexus
Method in brief: (§1)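 Test chemicals in a non-phytotoxic solvent mixture with surfactant were sprayed preemergence onto planted seeds and postemergence onto plants 2 to 18 cm tall (1- to 4-leaf stage). After twelve to sixteen days in a greenhouse, injury was visually rated against untreated controls from 0 (no effect) to 10 (complete control).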

sugar beet = test: Test B pre/postemergence sugar beet; assay type: in vivo, Beta vulgaris
Method in brief: as §1

cocklebur = test: Test B pre/postemergence cocklebur; assay type: in vivo, Xanthium strumarium
Method in brief: as §1

crabgrass = test: Test B pre/postemergence crabgrass; assay type: in vivo, Digitaria sanguinalis
Method in brief: as §1

morningglory = test: Test B pre/postemergence morningglory; assay type: in vivo, Ipomoea hederacea
Method in brief: as §1

surinam grass = test: Test B pre/postemergence surinam grass; assay type: in vivo, Brachiaria decumbens
Method in brief: as §1

corn = test: Test B pre/postemergence corn; assay type: in vivo, Zea mays
Method in brief: as §1

velvetleaf = test: Test B pre/postemergence velvetleaf; assay type: in vivo, Abutilon theophrasti
Method in brief: as §1

blackgrass = test: Test B pre/postemergence blackgrass; assay type: in vivo, Alopecurus myosuroides
Method in brief: as §1

rape = test: Test B pre/postemergence rape; assay type: in vivo, Brassica napus
Method in brief: as §1

purple nutsedge = test: Test B pre/postemergence purple nutsedge; assay type: in vivo, Cyperus rotundus
Method in brief: as §1

giant foxtail = test: Test B pre/postemergence giant foxtail; assay type: in vivo, Setaria faberii
Method in brief: as §1

wild oat = test: Test B pre/postemergence wild oat; assay type: in vivo, Avena fatua
Method in brief: as §1

soybean = test: Test B pre/postemergence soybean; assay type: in vivo, Glycine max
Method in brief: as §1

wheat = test: Test B pre/postemergence wheat; assay type: in vivo, Triticum aestivum
Method in brief: as §1

bedstraw = test: Test B pre/postemergence bedstraw; assay type: in vivo, Galium aparine
Method in brief: as §1

[1] = Postemergence, Rate 125 g/ha, scale of 0 to 10 where 0 is no effect and 10 is complete control
[2] = Postemergence, Rate 250 g/ha, scale of 0 to 10, 0 is no effect, 10 is complete control
[3] = Postemergence, Rate 500 g/ha, scale of 0 to 10 where 0 is no effect and 10 is complete control
[4] = Preemergence, Rate 62 g/ha, scale 0 to 10 (0 no effect, 10 complete control)
[5] = Preemergence, Rate 125 g/ha, scale of 0 to 10 where 0 is no effect and 10 is complete control
[6] = Preemergence, Rate 500 g/ha, scale of 0 to 10 where 0 is no effect and 10 is complete control
[7] = Postemergence, Rate 62 g/ha, scale of 0 to 10, 0 is no effect, 10 is complete control
[8] = Preemergence, Rate 62 g/ha, scale of 0 to 10 where 0 is no effect and 10 is complete control
[9] = Preemergence, Rate 250 g/ha, scale 0 to 10 (0 no effect, 10 complete control)
[10] = Rate 1000 g/ha, Preemergence, scale 0 to 10 (0 no effect, 10 complete control)

## CC(C)N(C(=O)n1oc(=O)n(CCCC(F)(F)F)c1=O)c1ccccc1 [Compound 585]
pigweed; [1]
  Plant response rating, Redroot pigweed: 0
pigweed; [2]
  Redroot pigweed plant response rating: 3
pigweed; [3]
  Plant response rating, Redroot pigweed: 7
pigweed; [4]
  Redroot pigweed plant response rating: 6
pigweed; [5]
  Redroot pigweed plant response rating: 9
pigweed; [6]
  Redroot pigweed plant response rating: 10
Sugar beet; [1]
  Plant response rating, Sugarbeets: 2
Sugar beet; [2]
  Sugarbeets plant response rating: 4
Sugar beet; [3]
  Plant response rating, Sugarbeets: 7
Sugar beet; [4]
  Sugarbeets plant response rating: 0
Sugar beet; [5]
  Sugarbeets plant response rating: 3
Sugar beet; [6]
  Sugarbeets plant response rating: 6
cocklebur; [7]
  Cocklebur plant response rating: 0
cocklebur; [1]
  Plant response rating, Cocklebur: 0
cocklebur; [2]
  Cocklebur plant response rating: 0
cocklebur; [3]
  Plant response rating, Cocklebur: 7
cocklebur; [4]
  Cocklebur plant response rating: 0
cocklebur; [5]
  Cocklebur plant response rating: 0
cocklebur; Preemergence, Rate 250 g/ha
  Cocklebur plant response rating (0 to 10 scale): 0
cocklebur; [6]
  Cocklebur plant response rating: 3
crabgrass; [1]
  Plant response rating, Crabgrass: 5
crabgrass; [2]
  Crabgrass plant response rating: 9
crabgrass; [3]
  Plant response rating, Crabgrass: 9
crabgrass; [4]
  Crabgrass plant response rating: 5
crabgrass; [5]
  Crabgrass plant response rating: 8
crabgrass; [6]
  Crabgrass plant response rating: 10
morningglory; [7]
  Morningglory plant response rating: 4
morningglory; [1]
  Plant response rating, Morningglory: 8
morningglory; [2]
  Morningglory plant response rating: 10
morningglory; [3]
  Plant response rating, Morningglory: 10
morningglory; [4]
  Morningglory plant response rating: 0
morningglory; [5]
  Morningglory plant response rating: 0
morningglory; [6]
  Morningglory plant response rating: 5
Surinam grass; [7]
  B. signalgrass plant response rating: 0
Surinam grass; [1]
  Plant response rating, B. signalgrass: 0
Surinam grass; [2]
  B. signalgrass plant response rating: 0
Surinam grass; [3]
  Plant response rating, B. signalgrass: 7
Surinam grass; [4]
  B. signalgrass plant response rating: 3
Surinam grass; [5]
  B. signalgrass plant response rating: 8
Surinam grass; Preemergence, Rate 250 g/ha
  B. signalgrass plant response rating (0 to 10 scale, 0 is no effect, 10 is complete control): 9
Surinam grass; [6]
  B. signalgrass plant response rating: 9
corn; [7]
  Corn plant response rating: 0
corn; [1]
  Plant response rating, Corn: 0
corn; [2]
  Corn plant response rating: 0
corn; [3]
  Plant response rating, Corn: 5
corn; [4]
  Corn plant response rating: 0
corn; [5]
  Corn plant response rating: 2
corn; Preemergence, Rate 250 g/ha
  Corn plant response rating (0 to 10 scale): 3
corn; [6]
  Corn plant response rating: 5
velvetleaf; [1]
  Plant response rating, Velvetleaf: 3
velvetleaf; [2]
  Velvetleaf plant response rating: 4
velvetleaf; [3]
  Plant response rating, Velvetleaf: 5
velvetleaf; [4]
  Velvetleaf plant response rating: 0
velvetleaf; [5]
  Velvetleaf plant response rating: 0
velvetleaf; [6]
  Velvetleaf plant response rating: 6
blackgrass; [7]
  Blackgrass plant response rating: 3
blackgrass; [1]
  Plant response rating, Blackgrass: 6
blackgrass; [2]
  Blackgrass plant response rating: 6
blackgrass; [3]
  Plant response rating, Blackgrass: 7
blackgrass; [4]
  Blackgrass plant response rating: 3
blackgrass; [5]
  Blackgrass plant response rating: 8
blackgrass; Preemergence, Rate 250 g/ha
  Blackgrass plant response rating (0 to 10 scale): 8
blackgrass; [6]
  Blackgrass plant response rating: 8
rape; [7]
  Rape plant response rating: 0
rape; [1]
  Plant response rating, Rape: 3
rape; [2]
  Rape plant response rating: 5
rape; [3]
  Plant response rating, Rape: 5
rape; [4]
  Rape plant response rating: 3
rape; [5]
  Rape plant response rating: 8
rape; [6]
  Rape plant response rating: 10
Purple nutsedge; [7]
  Nutsedge plant response rating: 0
Purple nutsedge; [1]
  Plant response rating, Nutsedge: 0
Purple nutsedge; [2]
  Nutsedge plant response rating: 0
Purple nutsedge; [3]
  Plant response rating, Nutsedge: 0
Purple nutsedge; [4]
  Nutsedge plant response rating: 0
Purple nutsedge; [5]
  Nutsedge plant response rating: 0
Purple nutsedge; [6]
  Nutsedge plant response rating: 10
Giant foxtail; [7]
  Giant foxtail plant response rating: 6
Giant foxtail; [1]
  Plant response rating, Giant foxtail: 6
Giant foxtail; [2]
  Giant foxtail plant response rating: 8
Giant foxtail; [3]
  Plant response rating, Giant foxtail: 9
Giant foxtail; [4]
  Giant foxtail plant response rating: 7
Giant foxtail; [5]
  Giant foxtail plant response rating: 6
Giant foxtail; [6]
  Giant foxtail plant response rating: 10
Wild oat; [1]
  Plant response rating, Wild oats: 0
Wild oat; [2]
  Wild oats plant response rating: 0
Wild oat; [3]
  Plant response rating, Wild oats: 2
Wild oat; [4]
  Wild oats plant response rating: 0
Wild oat; [5]
  Wild oats plant response rating: 3
Wild oat; [6]
  Wild oats plant response rating: 9
soybean; [1]
  Plant response rating, Soybean: 0
soybean; [2]
  Soybean plant response rating: 4
soybean; [3]
  Plant response rating, Soybean: 3
soybean; [4]
  Soybean plant response rating: 0
soybean; [5]
  Soybean plant response rating: 0
soybean; [6]
  Soybean plant response rating: 3
wheat; [1]
  Plant response rating, Wheat: 2
wheat; [2]
  Wheat plant response rating: 2
wheat; [3]
  Plant response rating, Wheat: 4
wheat; [4]
  Wheat plant response rating: 0
wheat; [5]
  Wheat plant response rating: 3
wheat; [6]
  Wheat plant response rating: 3
bedstraw; [7]
  Bedstraw plant response rating: 0
bedstraw; [1]
  Plant response rating, Bedstraw: 8
bedstraw; [4]
  Bedstraw plant response rating: 7
bedstraw; [5]
  Bedstraw plant response rating: 8
bedstraw; Preemergence, Rate 250 g/ha
  Bedstraw plant response rating (0 to 10 scale): 9
bedstraw; [6]
  Bedstraw plant response rating: 8

## CC(C)N(C(=O)n1oc(=O)n(C(C)C=O)c1=O)c1ccccc1 (stereo not shown) [Compound 693]
pigweed; [8]
  Redroot pigweed plant response rating: 0
pigweed; [5]
  Plant response rating, Redroot pigweed: 0
Sugar beet; [8]
  Sugarbeets plant response rating: 0
Sugar beet; [5]
  Plant response rating, Sugarbeets: 0
cocklebur; [8]
  Cocklebur plant response rating: 0
cocklebur; [5]
  Plant response rating, Cocklebur: 0
cocklebur; [9]
  Plant response rating, Cocklebur: 0
cocklebur; [6]
  Plant response rating, Cocklebur: 0
crabgrass; [8]
  Crabgrass plant response rating: 0
crabgrass; [5]
  Plant response rating, Crabgrass: 0
crabgrass; [9]
  Plant response rating, Crabgrass: 0
morningglory; [8]
  Morningglory plant response rating: 0
morningglory; [5]
  Plant response rating, Morningglory: 0
Surinam grass; [8]
  B. signalgrass plant response rating: 0
Surinam grass; [5]
  Plant response rating, B. signalgrass: 0
Surinam grass; [9]
  Plant response rating, B. signalgrass: 0
Surinam grass; [6]
  Plant response rating, B. signalgrass: 0
corn; [8]
  Corn plant response rating: 0
corn; [5]
  Plant response rating, Corn: 0
corn; [9]
  Plant response rating, Corn: 0
velvetleaf; [8]
  Velvetleaf plant response rating: 0
velvetleaf; [5]
  Plant response rating, Velvetleaf: 0
blackgrass; [8]
  Blackgrass plant response rating: 0
blackgrass; [5]
  Plant response rating, Blackgrass: 0
blackgrass; [9]
  Plant response rating, Blackgrass: 0
blackgrass; [6]
  Plant response rating, Blackgrass: 2
rape; [8]
  Rape plant response rating: 0
rape; [5]
  Plant response rating, Rape: 0
Purple nutsedge; [5]
  Plant response rating, Nutsedge: 0
Giant foxtail; [8]
  Giant foxtail plant response rating: 0
Giant foxtail; [5]
  Plant response rating, Giant foxtail: 0
Wild oat; [8]
  Wild oats plant response rating: 0
Wild oat; [5]
  Plant response rating, Wild oats: 0
soybean; [8]
  Soybean plant response rating: 0
soybean; [5]
  Plant response rating, Soybean: 0
wheat; [8]
  Wheat plant response rating: 0
wheat; [5]
  Plant response rating, Wheat: 0
bedstraw; [8]
  Bedstraw plant response rating: 0
bedstraw; [5]
  Plant response rating, Bedstraw: 0
bedstraw; [9]
  Plant response rating, Bedstraw: 0
bedstraw; [6]
  Plant response rating, Bedstraw: 0

## COP(=O)(CCn1c(=O)on(C(=O)N(c2ccc(Cl)cc2)C(C)C)c1=O)OC [Compound 698]
pigweed; [5]
  Plant response rating, Redroot pigweed: 0
pigweed; [10]
  Plant response rating, Redroot pigweed: 0
Sugar beet; [5]
  Plant response rating, Sugarbeets: 0
Sugar beet; [10]
  Plant response rating, Sugarbeets: 0
cocklebur; [5]
  Plant response rating, Cocklebur: 0
cocklebur; [9]
  Plant response rating, Cocklebur: 0
cocklebur; [6]
  Plant response rating, Cocklebur: 0
cocklebur; [10]
  Plant response rating, Cocklebur: 0
crabgrass; [5]
  Plant response rating, Crabgrass: 3
crabgrass; [9]
  Plant response rating, Crabgrass: 8
crabgrass; [10]
  Plant response rating, Crabgrass: 9
morningglory; [5]
  Plant response rating, Morningglory: 0
morningglory; [10]
  Plant response rating, Morningglory: 0
Surinam grass; [5]
  Plant response rating, B. signalgrass: 0
Surinam grass; [9]
  Plant response rating, B. signalgrass: 3
Surinam grass; [6]
  Plant response rating, B. signalgrass: 5
Surinam grass; [10]
  Plant response rating, B. signalgrass: 4
corn; [5]
  Plant response rating, Corn: 0
corn; [9]
  Plant response rating, Corn: 0
corn; [10]
  Plant response rating, Corn: 0
velvetleaf; [5]
  Plant response rating, Velvetleaf: 0
velvetleaf; [10]
  Plant response rating, Velvetleaf: 0
blackgrass; [5]
  Plant response rating, Blackgrass: 0
blackgrass; [9]
  Plant response rating, Blackgrass: 2
blackgrass; [6]
  Plant response rating, Blackgrass: 8
blackgrass; [10]
  Plant response rating, Blackgrass: 9
rape; [5]
  Plant response rating, Rape: 0
rape; [10]
  Plant response rating, Rape: 8
Purple nutsedge; [5]
  Plant response rating, Nutsedge: 0
Giant foxtail; [5]
  Plant response rating, Giant foxtail: 0
Giant foxtail; [10]
  Plant response rating, Giant foxtail: 10
Wild oat; [5]
  Plant response rating, Wild oats: 0
Wild oat; [10]
  Plant response rating, Wild oats: 10
soybean; [5]
  Plant response rating, Soybean: 0
soybean; [10]
  Plant response rating, Soybean: 3
wheat; [5]
  Plant response rating, Wheat: 0
wheat; [10]
  Plant response rating, Wheat: 6
bedstraw; [5]
  Plant response rating, Bedstraw: 0
bedstraw; [9]
  Plant response rating, Bedstraw: 0
bedstraw; [6]
  Plant response rating, Bedstraw: 0
bedstraw; [10]
  Plant response rating, Bedstraw: 0
